Source: the NIST ThermoML archive (doi:10.1016/j.fluid.2015.04.031)
Numbers after ± are expanded uncertainties.

Settings: Liquid; for mass density: 101.33 kPa, Vibrating tube method; for vapor or sublimation pressure: Closed cell (Static) method

Compound | mass density (298.15 K) | vapor or sublimation pressure (293.15 K) | vapor or sublimation pressure (298.15 K) | vapor or sublimation pressure (303.15 K) | vapor or sublimation pressure (308.15 K) | vapor or sublimation pressure (313.15 K)
CCCC[N+]1(C)CCCC1.N#CC(=C=[N-])C#N [1-butyl-1-methylpyrrolidinium tricyanomethanide] | 1006.75 ± 1.1 kg/m3 | – | – | – | – | –
CCCC[n+]1ccc(C)cc1.N#CC(=C=[N-])C#N [1-butyl-4-methylpyridinium tricyanomethanide] | 1036.62 ± 1.2 kg/m3 | – | – | – | – | –
c1ccncc1 [pyridine] | 982.85 ± 0.11 kg/m3 | 2.1 ± 0.1 kPa | 2.77 ± 0.11 kPa | 3.62 ± 0.11 kPa | 4.68 ± 0.11 kPa | 6 ± 0.11 kPa
c1ccsc1 [thiophene] | 1058.56 ± 0.12 kg/m3 | 8.19 ± 0.13 kPa | 10.4 ± 0.14 kPa | 12.97 ± 0.15 kPa | 16.1 ± 0.17 kPa | 19.4 ± 0.17 kPa
